Values after ≈ are worked out from the molar mass of the structure shown. Read-outs that look alike come from different tables or passages of the source.
Legend:
[1] = system: Clostridium difficile UNT103-1; assay: Ileal cannulated Syrian hamster C. difficile infection model; format: in vivo, Golden Syrian hamsters
Experimental: Following ileal cannulation surgery and recovery, male Golden Syrian hamsters were inoculated with Clostridium difficile UNT103-1 (VA11, non epidemic (cdtB-, REA group J) Curtis Donskey, Cleveland VA Hospital, Cleveland, Ohio). On Day 1, at 24 hrs after infection, all animals received a single subcutaneous injection of clindamycin (10 mg/kg). Test article formulations were administered three times per day (TID), starting on Day 2 at 18 hours after Clindamycin injection, for 5 consecutive days (Days 2 through 6). Vancomycin (positive control) was administered once a day at 20 mg/kg on Days 2 through 6, and followed until Day 22 to assess recurrence. The cecal contents from all hamsters that died on study or euthanized at the end ([…]) were tested for C. difficile Toxin A and Toxin B (tgc BIOMICS ELISA Kit, cat# TGC-E002-1) and for C. difficile Spore counts. Spore titer was determined by incubating the cecal contents in 50% final concentration of ethanol for 60 minutes at room temperature, centrifuging and resuspending the pellet in nano-pure water. The resuspension is incubated at 65° C. for 15 minutes, centrifuged again and the pellet resuspended again in nano-pure water. […] After 48 hours of anaerobic incubation, spore counts are determined as colony forming units (CFUs).

[2] = system: Clostridium difficile UNT103-1; assay: Second non-cannulated Syrian hamster C. difficile infection model, oral gavage dose range-finding; format: in vivo, Golden Syrian hamsters
Experimental: (§1) Following the recovery phase, male Golden Syrian hamsters were inoculated with Clostridium difficile UNT103-1 (VA11, non epidemic (cdtB-, REA group J) Curtis Donskey, Cleveland VA Hospital, Cleveland, Ohio). On Day 1, at 24 hrs after infection, all animals received a single subcutaneous injection of clindamycin (10 mg/kg). Test article formulated at 3 to 5 different doses were administered three times per day (TID), starting on Day 2 at 18 hours after Clindamycin injection, for 5 consecutive days (Days 2 through 6), and followed until Day 22 to assess recurrence. Vancomycin (positive control) was administered once a day at 20 mg/kg on Days 2 through 6. Cecal spore counts and Toxins A and B were determined as described above.

Clostridium difficile = assay: C. difficile MIC assay (broth dilution); format: cell-based; settings: Clostridioides difficile
Experimental: A minimum inhibitory concentration (MIC) assessment was performed using the anaerobic human gastrointestinal pathogen Clostridium difficile. A modification of the CLSI M11-A8 broth dilution method for Bacteroides fragilis susceptibility testing was used for C. difficile. (Methods for Dilution In Antimicrobial Susceptibility Tests for Bacteria That Grow Aerobically; Approved Standard-Eighth Edition. CLSI document M07-A8 (ISBN 1-56238-689-1). Vol. 29 No. 2. Clinical and Laboratory Standards Institute, USA, 2009). […] C. difficile was streaked and incubated on blood agar plates under anaerobic conditions. […] A 4 μL aliquot of each dilution was added to 196 μL of Reinforced Clostridial Medium (RCM), with test strains in wells of a 96 well plate. The final volume was 200 μL in each well.
Multisite variants were subsequently tested for specific antimicrobial activity in a C. difficile MIC assay (Table 10) (Methods for Antimicrobial Susceptibility Testing of Anaerobic Bacteria Approved Standard-Seventh Edition. CLSI document M11-A8 (ISBN 1-56238-790-1). Vol. 32 No. 5. Clinical and Laboratory Standards Institute, USA, 2012).

[3] = system: Peptostreptococcus anaerobius (ATCC 27337); assay: microbe, parasite or virus in culture; settings: ATCC27337, read-out: MIC P. anaerobius
[4] = system: Bifidobacterium breve (ATCC 15700); assay: microbe, parasite or virus in culture; settings: ATCC15700, read-out: MIC B. breve
Staphylococcus aureus = assay: MIC assay against Staphylococcus aureus; format: cell-based; settings: Staphylococcus aureus, ATCC700699, read-out: MIC S. aureus ATCC 700699
[5] = system: Mycobacterium phlei (ATCC 11758); assay: MIC assay against Mycobacterium phlei (acid-fast); format: cell-based; settings: Mycolicibacterium phlei, ATCC11758; acid-fast microorganism; single site variants
[6] = system: Clostridium scindens (ATCC 35704); assay: microbe, parasite or virus in culture; settings: ATCC35704, read-out: MIC C. scindens
[7] = system: Lactobacillus acidophilus (CCUG 4356); assay: microbe, parasite or virus in culture; settings: CCUG4356, read-out: MIC L. acidophilus
[8] = system: Clostridium difficile UNT103-1; assay: Non-cannulated Syrian hamster C. difficile infection model, oral gavage; format: in vivo, Golden Syrian hamsters
Experimental: as §1, with “formulations” for “formulated at 3 to 5 different doses”, “above” for “above.”

[9] = vancomycin control, 20 mg/kg once a day

**Q.** How did the “Mean LOG10 CFU/mL of feces homogenates (cecal spore counts) at Day-22” value (shortened to “Mean LOG10 CFU/mL of feces homogenates”) ([1]; hamster, in vivo) turn out when `CN[C@H](CC(C)C)C(=O)N[C@H]1C(=O)N[C@@H](CC(N)=O)C(=O)N[C@H]2C(=O)N[C@H]3C(=O)N[C@H](C(=O)N[C@H](C(=O)O)c4cc(O)cc(O)c4-c4cc3ccc4O)[C@H](O)c3ccc(c(Cl)c3)Oc3cc2cc(c3O[C@@H]2O[C@H](CO)[C@@H](O)[C@H](O)[C@H]2O[C@H]2C[C@](C)(N)[C@H](O)[C@H](C)O2)Oc2ccc(cc2Cl)[C@H]1O` [Vancomycin] was run?
**A.** 3.24 LOG10 CFU/mL

**Q.** What about the “Percent Survival at Day-22” value ([1]; ileal cannulated hamsters, test articles TID Days 2-6, vancomycin 20 mg/kg once a day) of the same molecule?
**A.** 33%

**Q.** And the “Mean LOG10 CFU/mL of feces homogenates” value ([2]; hamster, in vivo, 20 mg/kg)?
**A.** 6.66 LOG10 CFU/mL

**Q.** And the “Percent Survival at Day-22” value ([2]; hamster, in vivo, 20 mg/kg)?
**A.** 50%

**Q.** And the “Toxin A level at Day-22” value [2, 9]?
**A.** 292.6 ng/mL

**Q.** What about the “Toxin B level at Day-22” value [2, 9] of the same molecule?
**A.** 71.1 ng/mL

**Q.** And the MIC (Clostridium difficile; ATCC9689, strain ATCC 9689, first value of cell (first of two independent tests), read-out: C. difficile MIC ATCC 9689)?
**A.** 4 µg/mL (≈ 2.76 µM)

**Q.** What about the MIC (Clostridium difficile; ATCC9689, strain ATCC 9689, multi-site variants, read-out: C. difficile MIC ATCC 9689) of the same molecule?
**A.** 0.5 µg/mL (≈ 0.345 µM)

**Q.** What about the MIC (Clostridium difficile; ATCC9689, strain ATCC 9689, second value of cell (second independent test), read-out: C. difficile MIC ATCC 9689) of the same molecule?
**A.** 8 µg/mL (≈ 5.52 µM)

**Q.** And the MIC (Clostridium difficile; ATCC43255, strain ATCC 43255, read-out: C. difficile MIC ATCC 43255)?
**A.** 1 µg/mL (≈ 0.69 µM)

**Q.** What about the MIC (Clostridium difficile; ATCC43596, strain ATCC 43596, read-out: C. difficile MIC ATCC 43596) of the same molecule?
**A.** 1 µg/mL (≈ 0.69 µM)

**Q.** What about the MIC (Clostridium difficile; ATCC43597, strain ATCC 43597, read-out: C. difficile MIC ATCC 43597) of the same molecule?
**A.** 0.5 µg/mL (≈ 0.345 µM)

**Q.** What about the MIC (Clostridium difficile; ATCC70057, read-out: C. difficile MIC ATCC 70057, strain ATCC 70057, first value of cell (first of two independent tests)) of the same molecule?
**A.** 0.5 µg/mL (≈ 0.345 µM)

**Q.** And the MIC (Clostridium difficile; ATCC70057, strain ATCC 70057, second value of cell (second independent test), read-out: C. difficile MIC ATCC 70057)?
**A.** 1 µg/mL (≈ 0.69 µM)

**Q.** What about the MIC (Clostridium difficile; ATCCBAA1805, strain ATCC BAA-1805, multi-site variants, read-out: C. difficile MIC ATCC BAA-1805) of the same molecule?
**A.** 1 µg/mL (≈ 0.69 µM)

**Q.** What about the MIC (Clostridium difficile; ATCCBAA1808, strain ATCC BAA-1808, read-out: C. difficile MIC ATCC BAA-1808) of the same molecule?
**A.** 0.5 µg/mL (≈ 0.345 µM)

**Q.** And the MIC (Clostridium difficile; ATCCBAA1874, strain ATCC BAA-1874, read-out: C. difficile MIC ATCC BAA-1874)?
**A.** 0.5 µg/mL (≈ 0.345 µM)

**Q.** What about the MIC (Clostridium difficile; ATCCBAA1875, strain ATCC BAA-1875, multi-site variants, read-out: C. difficile MIC ATCC BAA-1875) of the same molecule?
**A.** 0.5 µg/mL (≈ 0.345 µM)

**Q.** What about the MIC (Clostridium difficile; BAA1805, strain BAA-1805, single site variants, read-out: C. difficile MIC BAA-1805) of the same molecule?
**A.** 1 µg/mL (≈ 0.69 µM)

**Q.** What about the MIC (Clostridium difficile; BAA1875, strain BAA-1875, single site variants, read-out: C. difficile MIC BAA-1875) of the same molecule?
**A.** 1 µg/mL (≈ 0.69 µM)

**Q.** And the MIC (Clostridium difficile; strain 103-1 (UNT103-1), read-out: C. difficile MIC 103-1)?
**A.** 1 µg/mL (≈ 0.69 µM)

**Q.** What about the MIC (Clostridium difficile; strain 107-1 (UNT107-1), read-out: C. difficile MIC 107-1) of the same molecule?
**A.** 4 µg/mL (≈ 2.76 µM)

**Q.** And the MIC (Clostridium difficile; strain BI1, read-out: C. difficile MIC BI1)?
**A.** 8 µg/mL (≈ 5.52 µM)

**Q.** And the MIC [3]?
**A.** 1 µg/mL (≈ 0.69 µM)

**Q.** And the MIC [4]?
**A.** 0.5 µg/mL (≈ 0.345 µM)

**Q.** And the MIC (Staphylococcus aureus)?
**A.** 2 µg/mL (≈ 1.38 µM)

**Q.** And the MIC [5]?
**A.** 0.25 µg/mL (≈ 0.173 µM)

**Q.** What about the MIC [6] of the same molecule?
**A.** 1 µg/mL (≈ 0.69 µM)

**Q.** And the MIC [7]?
**A.** 1 µg/mL (≈ 0.69 µM)

**Q.** And the “Mean LOG10 CFU/mL of feces homogenates” value ([8]; hamster, in vivo, po)?
**A.** 2.96 LOG10 CFU/mL

**Q.** What about the “Percent Survival at Day-22” value ([8]; oral gavage TID Days 2-6, vancomycin 20 mg/kg once a day) of the same molecule?
**A.** 83%

**Q.** And the “Toxin A level at Day-22” value ([8]; oral gavage, first value of A/B cell, limit of detection 0.8)?
**A.** 84.2 ng/mL

**Q.** What about the “Toxin B level at Day-22” value ([8]; oral gavage, second value of A/B cell, limit of detection 0.8) of the same molecule?
**A.** 8 ng/mL

Source: US20190315814A1, “LANTIBIOTIC VARIANTS AND USES THEREOF” (priority 2016, published 2019)
